Data reported in US20100240656A1, “COMPOUNDS AS HSP90 INHIBITORS” (ORYZON GENOMICS, S.A., priority 2007, published 2010).

Legend:
Hsp90α = molecular target: T1, Hsp90α (Homo sapiens, UniProt P07900); assay: Human Hsp90α fluorescence polarization competition assay with Example 37 tracer; details: displacement of 50 nM example 37 tracer, 125 nM Hsp90α, 1 h 30 min, 20° C.; read-out: Relative binding affinity values (IC50) obtained from FP measurements
T1 construct: purchased Stressgen Bioreagents SPP-776
Source text: The aim of this study was to determine the binding ability of compounds of the invention to the N-terminal ATP binding site of Hsp90. For that purpose competition assays with fluorescently labeled Hsp90 binders were used (compounds of examples 37 and 41).
Compounds of examples 37 and 41 are structurally based on 8-(6-Iodo-benzo[1,3]dioxol-5-ylsulfanyl)-9-(3-isopropylamino-propyl)-9H-purin-6-ylamine, a known binder of the N-terminal ATP binding site of Hsp90 which has the ability of inhibiting the Hsp90 function (cf. Chiosis G. et al. “Identification of Potent Water Soluble Purine-Scaffold Inhibitors of the Heat Shock Protein 90”, J. Med. Chem., 2006, vol. 49, no. 1, p. 381). Compounds 37 and 41 keep the essential structural features of the known binder (which means that said compounds are able to bind to the ATP binding site) and incorporate a fluorescent probe which allows the detection of the binding by fluorescence polarization.
When the binders of examples 37 and 41 are used in the competition assay, in a first step said binders are allowed to interact with the N-terminal ATP binding site of Hsp90. Then the compounds of the invention are added and it is determined if they are able to bind to the N-terminal ATP binding site (which will imply that the binders of examples 37 and 41 have been replaced from the N-terminal ATP binding site). If after performing the assay, the binding between the tested compound of the invention and the Hsp90 is observed, this will be indicative that the compound of the invention has been bound to the ATP binding site of Hsp90 and, therefore, can inhibit the Hsp90.
Once compounds of examples 37 and 41 were synthesized as reported above, they were dissolved at 238 μM and 1 mM in DMSO respectively (Sigma-Aldrich, cat. No. 154938). Hsp90α was purchased from Stressgen Bioreagents (cat. No. SPP-776; Victoria, Canada). The assay buffer contained 100 mM Tris·HCl, pH 7.4, 20 mM KCl, 6 mM MgCl2. Before each use 5 μg/mL bovine serum albumin (BSA, Pierce, Rockford (Ill.), cat No. 23209), 0.25 mM TCEP (Sigma, cat No. 64706) and 0.01% NP40 (Nonidet P40 Substitute, Fluka, cat No. 74385) were freshly added (cf. Howes et al., “A fluorescence polarization assay for inhibitors of Hsp90”, Analytical Biochemistry, 2006, vol. 350, p. 202-213; Kim et al., “Development of a fluorescence polarization assay for the molecular chaperone Hsp90”, J. Biomol. Screen., 2004, vol. 9 (5)).
Fluorescence polarization measurements were performed on an Infinite F200 (Tecan, Austria). Measurements were taken in black 96-well microplates (Corning Costar No. 3650) in which both the excitation and the emission occurred from the top of the wells. In the Infinite F200, a xenon arc lamp provides excitation light that passes through a 485 nm (20-nm bandwidth) excitation filter and then a polarizer filter. A beam splitter filter directs the polarized excitation light into the well, and emitted fluorescence transmits back through the same beam-splitter filter, through a polarizer filter, and then through a 535 nm (25-nm bandwidth) emission filter for detection (Kim et al., supra). The read time per well was 20 μs, and the number of reads per well was 25.
Compounds were assayed over a three-fold dilution series in a 96-well plate format to determine IC50 values. The serial dilution was performed in a separate 96-well plate (Thermowell 96 well PCR plate, Non-Treated Polypropylene, Corning Costar No. 6551) at 50 times final assay concentration in DMSO. (Howes et al, supra). 2 μl of compound was transferred to a black 96-well plate (Corning Costar No. 3650) and 98 μL of reaction solution (100 mM Tris·HCl, pH 7.4, 20 mM KCl, 6 mM MgCl2, 5 μg/mL bovine serum albumin (BSA), 0.25 mM TCEP, 0.01% NP40, 50 nM the compound of example 37, 125 nM Hsp90α) was added per well. The plate was allowed to equilibrate for 1 h 30 min on a slow moving shaker at 20° C. in the dark. […]

HCT-116 = assay: Cell growth inhibition by AlamarBlue method, HCT-116; type: cell-based; details: Homo sapiens; HCT-116, 72 hours; read-out: Cell growth inhibition values (EC50) obtained with AlamarBlue method
Protocol: (§1) The human colon cancer cell line HCT-116 and the human breast cell lines MCF-7 and SKBr3 were from the American Type Culture Collection (ATCC; CCL-247, HTB-22 and HTB-30, respectively).
(§2) The HCT-116 and SKBr3 cell lines were maintained in DMEM GlutaMAX (Invitrogen) supplemented with 10% fetal calf serum and the MCF-7 cell line was maintained in RPMI1640 GlutaMAX (Invitrogen) containing 1 mM sodium pyruvate and 10% fetal calf serum. Cells were grown in a humidified incubator at 37° C. in 5% CO2
(§3) Cells were plated in 96-well plates (Costar, 3596) at a density of 6000 cells/well in 50 μL medium 24 h before addition of the compounds. Compounds were then added in 8 concentrations, each in triplicate (dilution series of 1 to 3). To do so, a compound-dilution plate at 200× the screening concentrations was prepared in DMSO 100% (Sigma, 154938). Then, 1.7 μL of the 200× diluted compounds were transferred to a new plate and 170 μL of media were added and mixed with the pipette (plate at 2×). Columns 11 and 12 of this plate (controls) were filled with 1% DMSO in cell media (i.e. 1.7 μL DMSO and 170 μL cell media). Finally, 50 μL of this intermediate plate at 2× were transferred to the plate containing the seeded cells and slowly shaken manually. Cells were grown as described above. AlamarBlue viability assay (Biosource, Invitrogen, DAL1100) was performed 72 hours later following manufacturer's protocol. In brief, AlamarBlue diluted in media was added to cells to have a 5% solution (a 2× solution was prepared in media and 100 μL of this solution were transferred to each well, i.e. final volume of 200 μL). Cells were incubated at 37° C., 3 hours and at room temperature for an additional 30 min. Cells with no compound and, cells with no compound and lysed with triton X-100 (30 μL/well added 10 min before treatment with AlamarBlue) were used as controls (6 replicates of each). Fluorescence was monitored at 530 nm excitation and 590 nm emission wavelengths. Results were quantified using ELx800 Universal Microplate Reader (Bio-Tek Instruments, Inc.). EC50 were calculated as the dose of compound required to inhibit cell growth by 50%.

SKBr3 = assay: Cell growth inhibition by AlamarBlue method, SKBr3; type: cell-based; details: Homo sapiens, SK-BR-3; SKBr3, 72 hours; read-out: Cell growth inhibition values (EC50) obtained with AlamarBlue method
Protocol: as §1, §2, §3

| IC50 (Hsp90α) [µM] | EC50 (HCT-116) [µM] | EC50 (SKBr3) [µM] | SMILES |
| --- | --- | --- | --- |
| 200 | – | – | CCCCn1c(Sc2cc(OC)ccc2OC)nc(C(N)=O)c1N [Example 27, 5-amino-1-butyl-2-(2,5-dimethoxy-phenylsulfanyl)-1H-imidazole-4-carboxamide] |
| 3.1 | – | – | Cn1c(Sc2nc3cccc(Cl)c3s2)nc(C(N)=O)c1N [Example 51, 5-amino-2-(7-chloro-benzothiazol-2-ylsulfanyl)-1-methyl-1H-imidazole-4-carboxamide] |
| 200 | – | – | CC(=O)Nc1c(C(N)=O)nc(Sc2cc3c(cc2I)OCO3)n1CCCNC(C)C [Example 69, 5-acetylamino-2-(6-iodo-benzo[1,3]dioxol-5-ylsulfanyl)-1-(3-isopropylamino-propyl)-1H-imidazole-4-carboxamide] |
| 15 | 78 | – | Cn1c(Sc2cc3c(cc2Br)OCO3)nc(C(N)=O)c1N [Example 73, 5-amino-2-[(6-bromo-1,3-benzodioxol-5-yl)thio]-1-methyl-1H-imidazole-4-carboxamide] |
| 56 | – | – | CC(C)c1cc2c(cc1Sc1nc(C(N)=O)c(N)n1C)OCO2 [Example 75, 5-amino-2-[(6-isopropyl-1,3-benzodioxol-5-yl)thio]-1-methyl-1H-imidazole-4-carboxamide] |
| 4.5 | 39.2 | 39.2 | C=Cc1cc2c(cc1Sc1nc(C(N)=O)c(N)n1C)OCO2 [Example 77, 5-amino-1-methyl-2-[(6-vinyl-1,3-benzodioxol-5-yl)thio]-1H-imidazole-4-carboxamide] |
| 12.5 | 91.5 | – | CCOc1cc2c(cc1Sc1nc(C(N)=O)c(N)n1C)OCO2 [Example 79, 5-amino-2-[(6-ethoxy-1,3-benzodioxol-5-yl)thio]-1-methyl-1H-imidazole-4-carboxamide] |
| 4 | – | 23 | CSc1cc2c(cc1Sc1nc(C(N)=O)c(N)n1C)OCO2 [Example 81, 5-amino-1-methyl-2-{[6-(methylthio)-1,3-benzodioxol-5-yl]thio}-1H-imidazole-4-carboxamide] |
| 8 | 26.1 | – | Cn1c(Sc2cc3c(cc2S(C)(=O)=O)OCO3)nc(C(N)=O)c1N [Example 83, 5-amino-1-methyl-2-{[6-(methylsulfonyl)-1,3-benzodioxol-5-yl]thio}-1H-imidazole-4-carboxamide] |
| 5.3 | – | – | Cn1c(Sc2cc3c(cc2I)OCO3)nc(C(N)=O)c1N [Example 85, 5-amino-2-[(6-iodo-1,3-benzodioxol-5-yl)thio]-1-methyl-1H-imidazole-4-carboxamide] |
| 3.4 | 92 | – | NC(=O)c1nc(Sc2cc3c(cc2Br)OCO3)n(CCCN2CCOCC2)c1N [Example 86, 5-amino-2-[(6-bromo-1,3-benzodioxol-5-yl)thio]-1-(3-morpholin-4-ylpropyl)-1H-imidazole-4-carboxamide] |
| 0.9 | 1 | 4.6 | NC(=O)c1nc(Sc2cc3c(cc2I)OCO3)n(CCCN2CCOCC2)c1N [Example 87, 5-amino-2-[(6-iodo-1,3-benzodioxol-5-yl)thio]-1-(3-morpholin-4-ylpropyl)-1H-imidazole-4-carboxamide] |
| 0.6 | – | 1.1 | CCN(CC)CCCn1c(Sc2cc3c(cc2I)OCO3)nc(C(N)=O)c1N [Example 88, 5-Amino-2-[(6-iodo-1,3-benzodioxol-5-yl)thio]-1-[3-(diethylamino)propyl]-1H-imidazole-4-carboxamide] |
| 4.8 | – | 18 | CCN(CC)CCCn1c(Sc2cc3c(cc2Br)OCO3)nc(C(N)=O)c1N [Example 89, 5-amino-2-[(6-bromo-1,3-benzodioxol-5-yl)thio]-1-[3-(diethylamino)propyl]-1H-imidazole-4-carboxamide] |
| – | 21 | – | Cc1c(N)c(C(N)=O)nn1Cc1cc2c(cc1Br)OCO2 [Example 92, 4-amino-1-(6-bromo-benzol[1,3]dioxol-5-ylmethyl)-5-methyl-1H-pyrazole-3-carboxamide] |
| – | 30.5 | – | CC(=O)Nc1c(C(N)=O)nn(Cc2cc3c(cc2Br)OCO3)c1C [Example 93, 4-(acetylamino)-1-[(6-bromo-1,3-benzodioxol-5-yl)methyl]-5-methyl-1H-pyrazole-3-carboxamide] |
| – | 2.1 | – | CCC(=O)Nc1c(C(N)=O)nn(Cc2cc3c(cc2Br)OCO3)c1C [Example 94, 1-[(6-bromo-1,3-benzodioxol-5-yl)methyl]-5-methyl-4-(propionylamino)-1H-pyrazole-3-carboxamide] |
| – | 83 | – | Cc1c(NS(C)(=O)=O)c(C(N)=O)nn1Cc1cc2c(cc1Br)OCO2 [Example 95, 1-[(6-bromo-1,3-benzodioxol-5-yl)methyl]-5-methyl-4-[(methylsulfonyl)amino]-1H-pyrazole-3-carboxamide] |
| 5 | 70 | 41 | Cn1c(Sc2cc3c(cc2Br)OCC3)nc(C(N)=O)c1N [Example 97, 5-amino-2-[(6-bromo-2,3-dihydro-1-benzofuran-5-yl)thio]-1-methyl-1H-imidazole-4-carboxamide] |
| 2 | 6 | 1.9 | CCN(CC)CCCn1c(Sc2cc3c(cc2SC)OCO3)nc(C(N)=O)c1N [Example 98, 5-amino-2-{[6-(methylthio)-1,3-benzodioxol-5-yl]thio}-1-[3-(diethylamino)propyl]-1H-imidazole-4-carboxamide] |
| 1.45 | 1.2 | – | CCSc1cc2c(cc1Sc1nc(C(N)=O)c(N)n1CCCN(CC)CC)OCO2 [Example 100, 5-amino-2-{[6-(ethylthio)-1,3-benzodioxol-5-yl]thio}-1-[3-(diethylamino)propyl]-1H-imidazole-4-carboxamide] |
